In patent US20240327393A1 (SIRONAX LTD., priority 2021, published 2024):

Each molecule was assayed on HT-1080 (ATCC, CCL-121) cells (assay: HT-1080 cell viability assay with ferroptosis inducer RSL3 (Cell Titer-Glo)). Settings: Homo sapiens; HT-1080 cells treated with RSL3; 3-fold, 10-point dilution, 1.1 μM highest concentration; Table 2; read-out: EC50 (nM), ferroptosis inhibitory activity.
Assay type: cell-based
Summary of the method: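 HT-1080 cells (6000 per well) were cultured overnight at 37 °C, then co-treated with RSL3 and compound in a 3-fold, 10-point series topping at 1.1 μM. Viability was read by CellTiter-Glo luminescence and normalized to untreated controls. EC50 came from a sigmoidal non-linear regression fit.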
With COc1cc(N2CCC(C(F)(F)F)CC2)ncc1Nc1ccc2c(c1)n(C)c(=O)n2C [Compound 380, 5-((4-methoxy-6-(4-(trifluoromethyl)piperidin-1-yl)pyridin-3-yl)amino)-1,3-dimethyl-1,3-dihydro-2H-benzo[d]imidazol-2-one] the EC50 was 0.1 to 100 nM.
Molecule CC1CC(c2ccc(Nc3ccc4c(c3)OCC(=O)N4)cc2)CC(C)O1 (centres unmarked) [Compound 92, 7-((4-(2,6-dimethyltetrahydro-2H-pyran-4-yl)phenyl)amino)-2H-benzo[b][1,4]oxazin-3(4H)-one] has an EC50 of 0.1 to 100 nM.
Work on Cn1c(=O)oc2cc(Nc3ccc(N4CCC(C(F)(F)F)CC4)cc3)ccc21 [Compound 256] yielded an EC50 of 0.1 to 100 nM.
CN(CC(F)(F)F)c1ccc(Nc2ccc3c(c2)OCC(=O)N3C)cc1 [Compound 134] showed an EC50 of 0.1 to 100 nM.
In the case of CN1Cc2cc(Nc3ccc(N4CCC(C(F)(F)F)CC4)cc3)cc(F)c2C1=O [Compound 202, 7-fluoro-2-methyl-5-((4-(4-(trifluoromethyl)piperidin-1-yl)phenyl)amino) isoindolin-1-one], the EC50 is reported as 0.1 to 100 nM.
In the case of CC1CCN(c2ccc(Nc3ccc4c(c3)CN(C)C4=O)cc2)CC1 [Compound 174, 2-methyl-5-((4-(4-methylpiperidin-1-yl)phenyl)amino)isoindolin-1-one], the EC50 is reported as 0.1 to 100 nM.
In the case of CCn1c(=O)n(CC)c2cc(Nc3ccc(N4CCC(C)CC4)cc3)ccc21 [Compound 328, 1,3-diethyl-5-((4-(4-methylpiperidin-1-yl)phenyl)amino)-1,3-dihydro-2H-benzo[d]imidazol-2-one], the EC50 is reported as 0.1 to 100 nM.
With CN1C(=O)COc2cc(Nc3ccc(N4CCC(C(F)(F)F)CC4)cc3)ccc21 [Compound 2, 4-methyl-7-((4-(4-(trifluoromethyl)piperidin-1-yl)phenyl)amino)-2H-benzo[b][1,4]oxazin-3(4H)-one] the EC50 was 0.1 to 100 nM.
Molecule CN1Cc2cc(Nc3ccc(Oc4ccc(Cl)cc4)cc3)ccc2C1=O [Compound 232, 5-((4-(4-chlorophenoxy)phenyl)amino)-2-methylisoindolin-1-one] has an EC50 of 0.1 to 100 nM.
Cc1cc(Nc2ccc3c(c2)OCC(=O)N3C)ccc1N1CC(C)OC(C)C1 (centres unmarked) [Compound 52, 7-((4-(2,6-dimethylmorpholino)-3-methylphenyl)amino)-4-methyl-2H-benzo[b][1,4]oxazin-3(4H)-one] gave an EC50 of 0.1 to 100 nM.
CN1CCN(CC(=O)N2CCc3cc(Nc4ccc(N5CCCCC5)cc4)ccc3C2)CC1 [Compound 103, 2-(4-methylpiperazin-1-yl)-1-(6-((4-(piperidin-1-yl)phenyl)amino)-3,4-dihydroisoquinolin-2(1H)-yl)ethan-1-one] was tested, and the EC50 was 100 to 1000 nM.
O=C1COc2cc(Nc3ccc(N4CCC(C(F)(F)F)CC4)cc3)ccc2N1 [Compound 85, 7-((4-(4-(trifluoromethyl)piperidin-1-yl)phenyl)amino)-2H-benzo[b][1,4]oxazin-3(4H)-one] showed an EC50 of 0.1 to 100 nM.
Molecule CC1CN(c2ccc(Nc3ccc4c(c3)OCC(=O)N4)cc2)CC(C)O1 (centres unmarked) [Compound 140, 7-((4-(2,6-dimethylmorpholino)phenyl)amino)-2H-benzo[b][1,4]oxazin-3(4H)-one] has an EC50 of 0.1 to 100 nM.
With COCCn1c(=O)oc2ccc(Nc3ccc(N4CCC(C(F)(F)F)CC4)cc3)cc21 [Compound 393] the EC50 was 0.1 to 100 nM.
For CNCCCn1ncc2cc(Nc3ccc(N4CCC(C(F)(F)F)CC4)cc3)ccc21 [Compound 414, 1-(3-(methylamino)propyl)-N-(4-(4-(trifluoromethyl)piperidin-1-yl)phenyl)-1H-indazol-5-amine], the EC50 was 0.1 to 100 nM.
For Cc1cc(N2CC(C)OC(C)C2)ccc1Nc1ccc2c(c1)CN(C)C2 (centres unmarked) [Compound 439, N-(4-(2,6-dimethylmorpholino)-2-methylphenyl)-2-methylisoindolin-5-amine], the EC50 was 0.1 to 100 nM.
For CC(C)(C)NC(=O)N1Cc2ccc(Nc3ccc(N4CCC(C(F)(F)F)CC4)cc3)cc2C1 [Compound 205, N-(tert-butyl)-5-((4-(4-(trifluoromethyl)piperidin-1-yl)phenyl)amino) isoindoline-2-carboxamide], the EC50 was 0.1 to 100 nM.
Cn1c(=O)n(C)c2cc(Nc3ccc(N4CCC(C)(O)CC4)cc3)ccc21 [Compound 341, 5-((4-(4-hydroxy-4-methylpiperidin-1-yl)phenyl)amino)-1,3-dimethyl-1,3-dihydro-2H-benzo[d]imidazol-2-one] was tested, and the EC50 was 0.1 to 100 nM.
Work on CN1Cc2cc(Nc3ccc(N4CCCCC4)c(C(F)(F)F)c3)ccc2C1=O [Compound 178, 2-methyl-5-((4-(piperidin-1-yl)-3-(trifluoromethyl)phenyl)amino) isoindolin-1-one] yielded an EC50 of 0.1 to 100 nM.
For COC1(C(F)(F)F)CCN(c2ccc(Nc3ccc4c(c3)oc(=O)n4C)cc2)CC1 [Compound 386, 6-((4-(4-methoxy-4-(trifluoromethyl)piperidin-1-yl)phenyl)amino)-3-methylbenzo[d]oxazol-2(3H)-one], the EC50 was 0.1 to 100 nM.
For CCC1CN(c2ccc(Nc3ccc4c(c3)OCC(=O)N4C)c(C)c2)CCO1 (centres unmarked) [Compound 147, 7-((4-(2-ethylmorpholino)-2-methylphenyl)amino)-4-methyl-2H-benzo[b][1,4]oxazin-3(4H)-one], the EC50 was 0.1 to 100 nM.
CC1CN(c2ccc(Nc3ccc4c(c3)C(C)(C)C(=O)N4C)cc2)CC(C)O1 (centres unmarked) [Compound 428, 5-((4-(2,6-dimethylmorpholino)phenyl)amino)-1,3,3-trimethylindolin-2-one] gave an EC50 of 0.1 to 100 nM.
Molecule Cc1cc(Nc2ccc3c(c2)OCC(=O)N3C)ccc1N1CCC(C(F)(F)F)CC1 [Compound 86, 4-methyl-7-((3-methyl-4-(4-(trifluoromethyl)piperidin-1-yl)phenyl)amino)-2H-benzo[b][1,4]oxazin-3(4H)-one] has an EC50 of 0.1 to 100 nM.
For CCN1Cc2cc(Nc3ccc(N4CCC(C(F)(F)F)CC4)cc3)ccc2C1=O [Compound 180, 2-ethyl-5-((4-(4-(trifluoromethyl)piperidin-1-yl)phenyl)amino) isoindolin-1-one], the EC50 was 0.1 to 100 nM.
Molecule Fc1cc(Nc2ccc3c(c2)CN(CC2CC2)C3)cnc1N1CCCCC1 [Compound 196, 2-(cyclopropylmethyl)-N-(5-fluoro-6-(piperidin-1-yl)pyridin-3-yl) isoindolin-5-amine] has an EC50 of 0.1 to 100 nM.
With Cc1c(Nc2ccc3c(c2)n(C)c(=O)n3C)ccc(N2CCC(C)CC2)c1F [Compound 275, 5-((3-fluoro-2-methyl-4-(4-methylpiperidin-1-yl)phenyl)amino)-1,3-dimethyl-1,3-dihydro-2H-benzo[d]imidazol-2-one] the EC50 was 0.1 to 100 nM.
COc1cc(N2CCC(C)CC2)cc(F)c1Nc1ccc2c(c1)n(C)c(=O)n2C [Compound 272, 5-((2-fluoro-6-methoxy-4-(4-methylpiperidin-1-yl)phenyl)amino)-1,3-dimethyl-1,3-dihydro-2H-benzo[d]imidazol-2-one] gave an EC50 of 0.1 to 100 nM.
With Cc1nc(N2CC(C)OC(C)C2)ccc1Nc1ccc2c(c1)OCC(=O)N2C (centres unmarked) [Compound 69, 7-((6-(2,6-dimethylmorpholino)-2-methylpyridin-3-yl)amino)-4-methyl-2H-benzo[b][1,4]oxazin-3(4H)-one] the EC50 was 0.1 to 100 nM.

Same assay, conditions: Homo sapiens; HT-1080 cells treated with RSL3; 3-fold, 10-point dilution, 1.1 μM highest concentration; Table 3; read-out: EC50 (nM), ferroptosis inhibitory activity
O=C1CCOc2cc(Nc3ccc(N4CCC(C(F)(F)F)CC4)cc3)ccc2N1 [Compound 534, 8-((4-(4-(trifluoromethyl)piperidin-1-yl)phenyl)amino)-2,3-dihydrobenzo[b][1,4]oxazepin-4(5H)-one] gave an EC50 of 0.1 to 100 nM.
Cc1nc(N2CC(C)OC(C)(C)C2)ccc1Nc1ccc2c(c1)OCC(=O)N2 (centres unmarked) [Compound 520, 7-((2-methyl-6-(2,2,6-trimethylmorpholino)pyridin-3-yl)amino)-2H-benzo[b][1,4]oxazin-3(4H)-one] showed an EC50 of 0.1 to 100 nM.
For COc1cc(Nc2ccc3c(c2)OCC(=O)N3)c(C)cc1N1CCC(C(F)(F)F)CC1 [Compound 546, 7-((5-methoxy-2-methyl-4-(4-(trifluoromethyl)piperidin-1-yl)phenyl)amino)-2H-benzo[b][1,4]oxazin-3(4H)-one], the EC50 was 0.1 to 100 nM.
Cc1cc(N2CCC(O)(C(F)(F)F)CC2)ccc1Nc1ccc2c(c1)OCC(=O)N2 [Compound 509, 7-((4-(4-hydroxy-4-(trifluoromethyl)piperidin-1-yl)-2-methylphenyl)amino)-2H-benzo[b][1,4]oxazin-3(4H)-one] gave an EC50 of 0.1 to 100 nM.
Cc1cc(N2CC(OC(F)(F)F)C2)ccc1Nc1ccc2c(c1)OCC(O)C(=O)N2 (centres unmarked) [Compound 657, 3-hydroxy-8-[2-methyl-4-[3-(trifluoromethoxy)azetidin-1-yl]anilino]-3,5-dihydro-2H-1,5-benzoxazepin-4-one] gave an EC50 of 0.1 to 100 nM.
Cc1cc(N2CC(OC(F)F)C2)ccc1Nc1ccc2c(c1)OCC(O)C(=O)N2 (centres unmarked) [Compound 658, 8-[4-[3-(difluoromethoxy)azetidin-1-yl]-2-methyl-anilino]-3-hydroxy-3,5-dihydro-2H-1,5-benzoxazepin-4-one] was tested, and the EC50 was 0.1 to 100 nM.
Cc1cc(N2CCC(C(F)(F)F)CC2)ccc1Nc1ccc2c(c1)OC(CO)C(=O)N2C (centres unmarked) [Compound 570, 2-(hydroxymethyl)-4-methyl-7-((2-methyl-4-(4-(trifluoromethyl)piperidin-1-yl)phenyl)amino)-2H-benzo[b][1,4]oxazin-3(4H)-one] showed an EC50 of 0.1 to 100 nM.
For Cc1cc(N2CCC(C)CC2)ccc1Nc1ccc2c(c1)OCC(=O)N2C [Compound 490, 4-methyl-7-((2-methyl-4-(4-methylpiperidin-1-yl)phenyl)amino)-2H-benzo[b][1,4]oxazin-3(4H)-one], the EC50 was 0.1 to 100 nM.
For Cc1cc(N2CCC(C(F)(F)F)CC2)ccc1Nc1ccc2[nH]cc(C(N)=O)c2c1 [Compound 571, 5-((2-methyl-4-(4-(trifluoromethyl)piperidin-1-yl)phenyl)amino)-1H-indole-3-carboxamide], the EC50 was 0.1 to 100 nM.
CC(C)(C)C(=O)NN1C(=O)COc2cc(Nc3ccc(N4CCC(C(F)(F)F)CC4)cc3)ccc21 [Compound 600, N-(3-oxo-7-((4-(4-(trifluoromethyl)piperidin-1-yl)phenyl)amino)-2,3-dihydro-4H-benzo[b][1,4]oxazin-4-yl)pivalamide] gave an EC50 of 0.1 to 100 nM.
